The values that follow are results of earlier work, collected in PMC5862408, “CCR2 antagonism leads to marked reduction in proteinuria and glomerular injury in murine models of focal segmental glomerulosclerosis (FSGS)” (PLoS ONE, 2018).

The series has as its system diabetic nephropathy patients. To be noted: 52 weeks of treatment; cited from earlier work.

Take `Cc1cnc(C(=O)c2ncnc3[nH]ccc23)c(NS(=O)(=O)c2ccc(Cl)c(C(F)(F)F)c2)c1` [CCX140-B]: the proteinuria entry is “decreased and sustained reduction of proteinuria”.
